test: gradient 5% acetonitrile 3 min, to 50% in 2 min, to 85% in 15 min, held 3 min, 100 µL/min; conditions: column: Zorbax Extend-C18 2.1 x 50 mm; eluents: water / acetonitrile, 0.1% formic acid
Outline: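 Retention time was recorded from adduct peaks, which were picked computationally and each inspected manually. Pure standards ran in mixtures of ~100 molecules on HPLC coupled to a quadrupole time-of-flight mass spectrometer, in positive and negative ionization mode, through a Zorbax Extend-C18 column (2.1 × 50 mm, 1.8 μm) at 100 μL/min. Eluents were water and acetonitrile, each with 0.1% formic acid.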

| RP-LC retention time [s] | Compound |
| --- | --- |
| 650 | COc1ccc(C(CNC(=O)c2cc(=O)c3cc(Cl)ccc3o2)N(C)C)cc1 (centres undefined) |
| 891 | COc1cc(C=CC(=O)CC(=O)C=Cc2ccc(O)c(OC)c2)ccc1O |
| 727 | CC(C)c1nnc(NC(=O)C2CCN(C(=O)c3ccc(F)cc3)CC2)s1 |
| 794 | COc1cccc(OC)c1C(=O)N1CCCC1c1cc(C(C)C)on1 (centres undefined) |
| 1120 | CCc1ccc(NC(=O)Cn2c(C)nc3c(sc4nc(-c5ccccc5)ccc43)c2=O)cc1 |
| 747 | COC(=O)c1ncn2c1C(=O)N(c1cc(C)cc(C)c1)C(C)(C(=O)NCc1ccccc1)C2 (centres undefined) |
| 860 | COCCc1noc(C2Cc3ccccc3N2C(=O)Nc2ccc3c(c2)OCCO3)n1 (centres undefined) |
| 565 | O=C(C1=C(O)C(=O)N(CCCn2ccnc2)C1c1cccc([N+](=O)[O-])c1)c1cccs1 (centres undefined) |
| 732 | COc1ccc(CNC(=O)N2C[C@H](c3nc(-c4ccncc4)no3)[C@@H](C)C2)cc1 |
| 686 | CCCS(=O)(=O)NCc1ccc2c(c1)CCN2C(=O)CC |
| 873 | Cc1ccc(C(=O)Nc2nc(-c3ccc4c(c3)NC(=O)CO4)cs2)cc1 |
| 700 | CCOC(=O)c1[nH]c(C)c(CCC(=O)N2CCC(C(=O)NCc3ccc(OC)c(OC)c3)CC2)c1C |
| 567 | Cc1nc([C@H]2CCN(Cc3cc(Cl)ccc3F)C[C@H]2N(C)C)n[nH]1 |
| 661 | O=C(Nc1ccc(Cn2cncn2)cc1)c1cccs1 |
| 699 | CCS(=O)(=O)c1nc2ccc(NS(C)(=O)=O)cc2s1 |
| 709 | Cc1nn(CC(=O)NCC2CCCO2)c(=O)c2nc(-c3ccccc3)sc12 (centres undefined) |
| 1230 | Cc1ccc(S(=O)(=O)N2CCCC2c2nc(-c3cccc(F)c3)no2)cc1Cl (centres undefined) |
| 814 | CCc1noc(-c2ccc(-n3cnc(C(=O)NCC(C)C)c3)nc2)n1 |
| 691 | CCc1nc(N2CCC(C(=O)NCc3cc(OC)ccc3OC)CC2)c2c(C)scc2n1 |
| 958 | O=C1CC(c2noc(-c3cccc(F)c3)n2)CN1c1ccccc1 (centres undefined) |
| 716 | Cc1csc(NC(=O)Cn2ccc3ccc(-c4nnc(C)o4)cc32)n1 |
| 696 | CCCNC(=O)c1cc(-c2ccncc2)cn1Cc1ccc(C)cc1 |

| RP-LC retention time [s] | Compound |
| --- | --- |
| 515 | O=C(NCc1cccnc1)C1(CCO)CCN(c2ncccn2)C1 (centres undefined) |
| 1140 | Cc1ccc(Nc2c(-c3cccc(Br)c3)nc3ccc(Br)cn23)cc1 |
| 907 | CCCOC(=O)C1=C(C)NC2=C(C(=O)C(C(=O)OC)C(C)C2)C1c1ccc(OC)cc1 (centres undefined) |
| 798 | COc1cc(NC(=O)Cn2c(=O)n(-c3ccc(F)cc3)c(=O)c3c2cc(C)n3C)cc(OC)c1 |
| 954 | CC1(C)CC(=O)c2cn(-c3ccc(F)cc3)c(=O)c(C(=O)N3CCc4ccccc43)c2C1 |
| 777 | CCCNC(=O)c1cn(-c2ccc(-c3nc(CC)no3)cn2)cn1 |
| 974 | CC1CCN(c2ncc3c(n2)CCC(C(=O)NCCC2=CCCCC2)C3)CC1 (centres undefined) |
| 1170 | CCOC(=O)C1CCN(C(=O)C(C)n2c(=O)c(C(F)(F)F)nc3cc(C)c(C)cc32)CC1 (centres undefined) |
| 635 | Cc1cc(=O)n(CC(=O)Nc2cc(F)ccc2C)c(N2CCCC2)n1 |
| 632 | CN(C)C/C=C/C(=O)Nc1cc2c(Nc3ccc(F)c(Cl)c3)ncnc2cc1O[C@H]1CCOC1 |
| 797 | CCc1ccccc1NC(=O)N1CCC2(CC1)NC(=O)c1ccccc1N2CC |
| 984 | CCc1nn2c(CNS(=O)(=O)c3ccc(C)c(C)c3)c(-c3ccccc3)nc2s1 |
| 882 | COc1ccccc1CNC(=O)C1=C2CCCN2c2ccc(F)cc2S1(=O)=O |
| 837 | C=CCN1C(=O)COc2ccc(-c3csc(NC(=O)CC)n3)cc21 |
| 747 | CC(C)NC(=O)C1CCCN(c2nc3ncn(CC(=O)Nc4cc(F)cc(F)c4)c(=O)c3s2)C1 (centres undefined) |
| 1210 | CSc1ccccc1NC(=O)c1c(C)sc2ncnc(N3CCCC(C)C3)c12 (centres undefined) |
| 815 | COc1ccccc1C1(CNC(=O)Cc2cn(C)c3ccccc23)CCOCC1 |
| 876 | CN(C1CCc2nn(CC3CC3)c(=O)n2CC1)S(=O)(=O)c1ccc(C(F)(F)F)cc1 (centres undefined) |
| 867 | CC1=C(c2ccc(C)cc2)S(=O)(=O)N=C1N1CCC(NC(=O)Cc2ccsc2)CC1 |
| 718 | O=C(C1CCN(c2cnc3nccnc3c2)CC1)N1CCN(c2ccccc2)CC1 |
| 1060 | CCCn1cc(CCNS(=O)(=O)c2c(C)c(C)cc(C)c2C)c2cccnc21 |
| 773 | CCC(=O)N1CCc2sc(S(=O)(=O)NCc3ccc4c(c3)OCO4)cc2C1 |

| RP-LC retention time [s] | Compound |
| --- | --- |
| 678 | Cn1c(=O)n(CCN2CCCCC2)c(=O)c2c1nc1n2CCCN1c1ccc(Br)cc1 |
| 856 | CCn1cc(S(=O)(=O)N2CC(c3nc(CCOCc4ccccc4)no3)C2)cn1 |
| 925 | CCCNC(=O)c1cc(-c2ccc(F)cc2)cn1CC |
| 596 | Cc1nc2cc(C(=O)N3CCOCC3)ccc2n(C)c1=O |
| 1280 | CCc1ccc(-c2nc(-c3ccc4oc(C)nc4c3)no2)cc1 |
| 1010 | CCOC(=O)c1ccc(NS(=O)(=O)c2cc3n(c2)CCCNC3=O)cc1 |
| 957 | CCOC(=O)c1[nH]c(C)c(CN(Cc2ccco2)C(=O)Nc2ccccc2)c1C |
| 800 | Cc1ccc(N2CCN(C(=O)c3csc(C(=O)NC4CC4)n3)CC2)cc1 |
| 722 | COc1ccc(C(=O)CC2(O)C(=O)Nc3ccc(C)cc32)c(OC)c1OC (centres undefined) |
| 718 | Cc1cc(C(=O)NC(C)C)c2cccc(Cl)c2n1 |
| 610 | COc1nn(C)cc1C(=O)Nc1nnc(C2CC(=O)N(c3ccccc3)C2)o1 (centres undefined) |
| 1140 | CC1CCN(c2nn(CC(=O)NC3CCc4ccccc43)c(=O)c3ccccc23)CC1 (centres undefined) |
| 610 | CS(=O)(=O)N(Cc1ccncc1)C1CN(C(=O)C2(c3ccccc3)CC2)C1 |
| 879 | COc1ccc(Cl)c(Nc2nc3ccccc3nc2NS(=O)(=O)c2cccc(NC(=O)C(C)(C)N)c2)c1 |
| 665 | CCCCn1c(CN2CCOCC2)nc2cc(NC(=O)CC(C)C)ccc21 |
| 747 | O=C(NCc1ccc(F)cc1)N1CC(F)(F)C[C@H]1c1nnc(-c2cnccn2)o1 |
| 595 | Cn1c(=O)c2ccn(CC(=O)N3CCN(c4ncccn4)CC3)c2n(C)c1=O |
| 676 | CC(C)OC(=O)c1ncoc1-c1ccccc1C(=O)NCC1CCCO1 (centres undefined) |
| 556 | Cn1c(CCNC(=O)c2cn3ccccc3n2)nc2ccccc21 |
| 969 | CCn1cc(-c2nc(C)c(C(=O)NCc3ccc(F)cc3F)s2)c2cccnc21 |
| 821 | CC1=C(C(=O)OCCc2ccccc2)C(c2cccs2)NC(=O)N1 (centres undefined) |
| 1160 | CCc1cccc(C)c1NC(=O)Cn1nc(N2CCC(C)CC2)c2ccccc2c1=O |

| RP-LC retention time [s] | Compound |
| --- | --- |
| 793 | COc1ccc(-c2nc3cnccn3c2Nc2ccccc2C)cc1OC |
| 601 | O=C(NCCC1=CCCCC1)C1CCc2ncc(-c3ccsc3)n2C1 (centres undefined) |
| 650 | CNc1nc(Nc2cccc(OC)c2)nc2ccccc12 |
| 652 | CCCN1C(=O)Cc2cc(C(=O)NC3CC3)ccc21 |
| 1020 | O=c1n(Cc2ccc(Cl)cc2)nc2c(S(=O)(=O)N3CCc4ccccc4C3)cccn12 |
| 644 | CC(NC(=O)C1CCN(c2cc(N3CCCC3)ncn2)CC1)c1ccccc1 (centres undefined) |
| 774 | COc1ccc(C2c3c(oc4ccc(Br)cc4c3=O)C(=O)N2C)cc1OC (centres undefined) |
| 562 | OC[C@@H]1CN(Cc2ccncc2F)C[C@H]1c1nc(C2CC2)no1 |
| 824 | CCNC(=O)c1ccc(N2CCc3ccccc32)s1 |
| 642 | O=C(NCC(O)c1ccsc1)Nc1cccs1 (centres undefined) |
| 981 | Cn1cc(C2=CCN(S(=O)(=O)c3ccc(F)c(F)c3)CC2)c2cccnc21 |
| 593 | NC(=O)C1CCN(c2ccc3cccc(OCc4ccccc4Cl)c3n2)CC1 |
| 869 | COc1cccc(-n2ccc(=O)c(-c3nc(-c4ccccc4F)no3)n2)c1 |
| 936 | O=C(c1ccc(Cl)cc1Cl)N1CCN(c2cc(-c3ccccc3)[nH]n2)CC1 |
| 627 | O=C(Cn1c(=O)c2cccn2c2ccc(F)cc21)NCCCN1CCCCCC1 |
| 860 | CCOc1ccc(-n2ccn3cc(-c4ccc(F)cc4)nc3c2=O)cc1 |
| 773 | O=C(C1=NNc2ccccc2S1(=O)=O)N1CCCCC1 |
| 890 | O=C(Nc1cccc(Br)c1)C1CC(=O)N(CCc2c[nH]c3ccc(F)cc23)C1 (centres undefined) |
| 724 | Cc1ccc(-c2cc3c(=O)n(Cc4noc(CN5CCCCCC5)n4)ccn3n2)c(C)c1 |
| 1010 | O=C(N1CCC(Cc2noc(-c3ccc(F)cc3)n2)C1)C1(c2ccccc2)CC1 (centres undefined) |
| 811 | CCn1cc(C)c(C(=O)O)c1CC(=O)Nc1ccc(F)cc1F |
| 740 | CCn1c(N2CCC(C(=O)NCc3ccc4c(c3)OCO4)CC2)cc(=O)n(C)c1=O |

| Compound | RP-LC retention time [s] |
| --- | --- |
| O=C(Nc1ccccc1)N1[C@H]2CC[C@@H]1c1cncnc1C2 | 651 |

Reference: the METLIN SMRT retention time set (Domingo-Almenara et al. 2019)
